Data from patent US10538535B2, “Antitumoral compounds” (priority 2017, dated 2020).

What was measured:
HGC27 tumors = details: iv, 0.5 mg/kg, 504 h
H526 tumors = experiment: In vivo xenograft, human lung (SCLC) H526
PSN1 cells = experiment: cells; details: Homo sapiens, PSN1, 72 h
Method in brief: (§1)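 Cells seeded at 5000/well, attached 18 h, then treated 72 h with ten 2/5 serial dilutions (10 to 0.003 μg/mL, 1% final DMSO) in triplicate. Growth measured by SRB staining after glutaraldehyde fixation, with time-zero plate; values from NCI algorithm and four-parameter logistic fit.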

MDA-MB-231 cells = experiment: cells; details: Homo sapiens, MDA-MB-231, 72 h
Method in brief: as §1

A549 cells = experiment: cells; details: Homo sapiens, A549, 72 h
Method in brief: as §1

HT29 cells = experiment: cells; details: Homo sapiens, HT-29, 72 h
Method in brief: as §1

COc1c(C)cc2c(c1O)[C@@H]1[C@@H]3[C@@H]4SC[C@]5(N[C@@H](C)Cc6c5[nH]c5ccccc65)C(=O)OC[C@@H](c5c6c(c(C)c(OC(C)=O)c54)OCO6)N3[C@@H](O)[C@H](C2)N1C [D]
Median Tumor Volume (HGC27 tumors): 2043.4 mm^3
Median Tumor Volume (H526 tumors; Table 32, Day 0.0, iv Days 0, 7, 14, 12-R 0.05 mg/kg, Compound D 0.5 mg/kg): 216.1 mm^3
Median Tumor Volume (H526 tumors; Table 32, Day 2.0, iv Days 0, 7, 14, 12-R 0.05 mg/kg, Compound D 0.5 mg/kg): 240.9 mm^3
Median Tumor Volume (H526 tumors; Table 32, Day 4.0, iv Days 0, 7, 14, 12-R 0.05 mg/kg, Compound D 0.5 mg/kg): 99.3 mm^3
Median Tumor Volume (H526 tumors; Table 32, Day 7.0, iv Days 0, 7, 14, 12-R 0.05 mg/kg, Compound D 0.5 mg/kg): 56.7 mm^3
Median Tumor Volume (H526 tumors; Table 32, Day 9.0, iv Days 0, 7, 14, 12-R 0.05 mg/kg, Compound D 0.5 mg/kg): 62.5 mm^3
Median Tumor Volume (H526 tumors; Table 32, Day 11.0, iv Days 0, 7, 14, 12-R 0.05 mg/kg, Compound D 0.5 mg/kg): 62.5 mm^3
Median Tumor Volume (H526 tumors; Table 32, Day 14.0, iv Days 0, 7, 14, 12-R 0.05 mg/kg, Compound D 0.5 mg/kg): 32.0 mm^3
Median Tumor Volume (H526 tumors; Table 32, Day 16.0, iv Days 0, 7, 14, 12-R 0.05 mg/kg, Compound D 0.5 mg/kg): 4.0 mm^3
Median Tumor Volume (H526 tumors; Table 32, Day 21.0, iv Days 0, 7, 14, 12-R 0.05 mg/kg, Compound D 0.5 mg/kg): 4.0 mm^3
Median Tumor Volume (H526 tumors; Table 32, Day 28.0, iv Days 0, 7, 14, 12-R 0.05 mg/kg, Compound D 0.5 mg/kg): 4.0 mm^3
Median Tumor Volume (H526 tumors; Table 32, Day 35.0, iv Days 0, 7, 14, 12-R 0.05 mg/kg, Compound D 0.5 mg/kg): 4.0 mm^3
Median Tumor Volume (H526 tumors; Table 32, Day 42.0, iv Days 0, 7, 14, 12-R 0.05 mg/kg, Compound D 0.5 mg/kg): 4.0 mm^3
Median Tumor Volume (H526 tumors; Table 32, Day 49.0, iv Days 0, 7, 14, 12-R 0.05 mg/kg, Compound D 0.5 mg/kg): 4.0 mm^3
Median Tumor Volume (H526 tumors; Table 56, Day 0, iv weekly, 47-R 0.1 mg/Kg, Compound D 0.5 mg/Kg): 216.1 mm^3
Median Tumor Volume (H526 tumors; Table 56, Day 2, iv weekly, 47-R 0.1 mg/Kg, Compound D 0.5 mg/Kg): 240.9 mm^3
Median Tumor Volume (H526 tumors; Table 56, Day 4, iv weekly, 47-R 0.1 mg/Kg, Compound D 0.5 mg/Kg): 99.3 mm^3
Median Tumor Volume (H526 tumors; Table 56, Day 7, iv weekly, 47-R 0.1 mg/Kg, Compound D 0.5 mg/Kg): 56.7 mm^3
Median Tumor Volume (H526 tumors; Table 56, Day 9, iv weekly, 47-R 0.1 mg/Kg, Compound D 0.5 mg/Kg): 62.5 mm^3
Median Tumor Volume (H526 tumors; Table 56, Day 11, iv weekly, 47-R 0.1 mg/Kg, Compound D 0.5 mg/Kg): 62.5 mm^3
Median Tumor Volume (H526 tumors; Table 56, Day 14, iv weekly, 47-R 0.1 mg/Kg, Compound D 0.5 mg/Kg): 32.0 mm^3
Median Tumor Volume (H526 tumors; Table 56, Day 16, iv weekly, 47-R 0.1 mg/Kg, Compound D 0.5 mg/Kg): 4.0 mm^3
Median Tumor Volume (H526 tumors; Table 56, Day 21, iv weekly, 47-R 0.1 mg/Kg, Compound D 0.5 mg/Kg): 4.0 mm^3
Median Tumor Volume (H526 tumors; Table 56, Day 28, iv weekly, 47-R 0.1 mg/Kg, Compound D 0.5 mg/Kg): 4.0 mm^3
Median Tumor Volume (H526 tumors; Table 56, Day 35, iv weekly, 47-R 0.1 mg/Kg, Compound D 0.5 mg/Kg): 4.0 mm^3
Median Tumor Volume (H526 tumors; Table 56, Day 42, iv weekly, 47-R 0.1 mg/Kg, Compound D 0.5 mg/Kg): 4.0 mm^3
Median Tumor Volume (H526 tumors; Table 56, Day 49, iv weekly, 47-R 0.1 mg/Kg, Compound D 0.5 mg/Kg): 4.0 mm^3
Median Tumor Volume (H526 tumors; Table 56, Day 56, iv weekly, 47-R 0.1 mg/Kg, Compound D 0.5 mg/Kg): 4.0 mm^3
Median Tumor Volume (H526 tumors; Table 56, Day 63, iv weekly, 47-R 0.1 mg/Kg, Compound D 0.5 mg/Kg): 4.0 mm^3
Median Tumor Volume (H526 tumors; Table 56, Day 70, iv weekly, 47-R 0.1 mg/Kg, Compound D 0.5 mg/Kg): 4.0 mm^3
Median Tumor Volume (H526 tumors; Table 56, Day 77, iv weekly, 47-R 0.1 mg/Kg, Compound D 0.5 mg/Kg): 4.0 mm^3
Median Tumor Volume (H526 tumors; Table 56, Day 84, iv weekly, 47-R 0.1 mg/Kg, Compound D 0.5 mg/Kg): 4.0 mm^3
Median Tumor Volume (H526 tumors; Table 56, Day 91, iv weekly, 47-R 0.1 mg/Kg, Compound D 0.5 mg/Kg): 4.0 mm^3
Median Tumor Volume (H526 tumors; Table 56, Day 98, iv weekly, 47-R 0.1 mg/Kg, Compound D 0.5 mg/Kg): 4.0 mm^3
Median Tumor Volume (H526 tumors; Table 56, Day 105, iv weekly, 47-R 0.1 mg/Kg, Compound D 0.5 mg/Kg): 4.0 mm^3
Median Tumor Volume (H526 tumors; Table 56, Day 112, iv weekly, 47-R 0.1 mg/Kg, Compound D 0.5 mg/Kg): 4.0 mm^3
Median Tumor Volume (H526 tumors; Table 56, Day 119, iv weekly, 47-R 0.1 mg/Kg, Compound D 0.5 mg/Kg): 4.0 mm^3
Median Tumor Volume (H526 tumors; Table 56, Day 126, iv weekly, 47-R 0.1 mg/Kg, Compound D 0.5 mg/Kg): 4.0 mm^3
Median Tumor Volume (H526 tumors; Table 56, Day 133, iv weekly, 47-R 0.1 mg/Kg, Compound D 0.5 mg/Kg): 4.0 mm^3
Median Tumor Volume (H526 tumors; Table 56, Day 140, iv weekly, 47-R 0.1 mg/Kg, Compound D 0.5 mg/Kg): 4.0 mm^3
Median Tumor Volume (H526 tumors; Table 56, Day 147, iv weekly, 47-R 0.1 mg/Kg, Compound D 0.5 mg/Kg): 4.0 mm^3
Median Tumor Volume (H526 tumors; Table 56, Day 165, iv weekly, 47-R 0.1 mg/Kg, Compound D 0.5 mg/Kg): 4.0 mm^3
Median Tumor Volume (H526 tumors; Table 56, Day 175, iv weekly, 47-R 0.1 mg/Kg, Compound D 0.5 mg/Kg): 4.0 mm^3
Median Tumor Volume (H526 tumors; Table 56, Day 191, iv weekly, 47-R 0.1 mg/Kg, Compound D 0.5 mg/Kg): 4.0 mm^3
Median Tumor Volume (H526 tumors; Table 56, Day 205, iv weekly, 47-R 0.1 mg/Kg, Compound D 0.5 mg/Kg): 4.0 mm^3
GI50 (PSN1 cells): 20.8 nM
CC50 (PSN1 cells; read-out: LC50): 24.7 nM
IC (TGI) (PSN1 cells; read-out: TGI): 22.1 nM
GI50 (MDA-MB-231 cells): 9.88 nM
CC50 (MDA-MB-231 cells; read-out: LC50): 53.3 nM
IC (TGI) (MDA-MB-231 cells; read-out: TGI): 19.5 nM
GI50 (A549 cells): 12.5 nM
CC50 (A549 cells; read-out: LC50): > 130 nM
IC (TGI) (A549 cells; read-out: TGI): 28.6 nM
GI50 (HT29 cells): 10.3 nM
CC50 (HT29 cells; read-out: LC50): > 130 nM
IC (TGI) (HT29 cells; read-out: TGI): 23.4 nM
